Results taken from ChEMBL document CHEMBL4699491, “Identification of TNO155, an Allosteric SHP2 Inhibitor for the Treatment of Cancer” (J Med Chem, 2020).
Converted amounts (≈) assume the structure as drawn.

Key:
KYSE-520 cell line = assay: Antiproliferative activity against human KYSE-520 cells; assay type: functional, cell-based
[1] = molecular target: Voltage-gated inwardly rectifying potassium channel KCNH2 (Homo sapiens, UniProt Q12809)
Description: Inhibition of human ERG by Q-patch assay

[2] = molecular target: T1, Tyrosine-protein phosphatase non-receptor type 11 (Homo sapiens, UniProt Q06124)
T1 sequence (Q06124 whole entry): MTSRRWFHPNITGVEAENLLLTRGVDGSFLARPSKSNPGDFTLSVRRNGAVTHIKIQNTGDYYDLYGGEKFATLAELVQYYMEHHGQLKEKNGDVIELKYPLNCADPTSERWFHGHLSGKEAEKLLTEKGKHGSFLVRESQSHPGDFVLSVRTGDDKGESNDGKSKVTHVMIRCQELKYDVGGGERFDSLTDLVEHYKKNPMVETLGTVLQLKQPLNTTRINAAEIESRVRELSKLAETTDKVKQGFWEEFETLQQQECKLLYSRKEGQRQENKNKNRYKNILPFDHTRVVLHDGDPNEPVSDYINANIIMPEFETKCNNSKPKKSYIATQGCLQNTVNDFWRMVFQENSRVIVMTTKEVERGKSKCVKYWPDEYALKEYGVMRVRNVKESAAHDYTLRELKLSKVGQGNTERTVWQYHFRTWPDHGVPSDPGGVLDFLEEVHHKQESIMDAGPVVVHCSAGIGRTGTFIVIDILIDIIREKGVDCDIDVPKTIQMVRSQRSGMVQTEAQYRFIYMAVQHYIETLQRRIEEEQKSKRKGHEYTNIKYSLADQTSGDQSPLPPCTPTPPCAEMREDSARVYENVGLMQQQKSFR
Description: Allosteric inhibition of human SHP2 in human KYSE-520 cells assessed as reduction in ERK1/2 phosphorylation by fluorescence based assay

physchem [3] = details: octanol/water
Description: Lipophilicity, logP of the compound

physchem [4] = details: octanol/water; remark: listed apart in the source
Description: Distribution coefficient, logD of the compound

physchem [5] = details: aqueous, pH 6.8
Description: Aqueous solubility of the compound at pH 6.8

[6] = Toxicity in mouse 3T3 cells under irradiation by NRU phototoxicity test; assay type: cell-based
A-375 = assay: Antiproliferative activity against human A-375 cells; assay type: functional, cell-based
[7] = molecular target: Serine/threonine-protein kinase B-raf (Homo sapiens, UniProt P15056); assay: Inhibition of RAF in human A-375 cells assessed as reduction in p-ERK levels; assay type: cell-based
[8] = molecular target: T2, Tyrosine-protein phosphatase non-receptor type 11 (Homo sapiens) (UniProt Q06124); details: filed as negative allosteric modulator
T2 sequence (whole entry): T1 sequence (Q06124 whole entry)

Chain of Voltage-gated inwardly rectifying potassium channel KCNH2 (Q12809 whole entry): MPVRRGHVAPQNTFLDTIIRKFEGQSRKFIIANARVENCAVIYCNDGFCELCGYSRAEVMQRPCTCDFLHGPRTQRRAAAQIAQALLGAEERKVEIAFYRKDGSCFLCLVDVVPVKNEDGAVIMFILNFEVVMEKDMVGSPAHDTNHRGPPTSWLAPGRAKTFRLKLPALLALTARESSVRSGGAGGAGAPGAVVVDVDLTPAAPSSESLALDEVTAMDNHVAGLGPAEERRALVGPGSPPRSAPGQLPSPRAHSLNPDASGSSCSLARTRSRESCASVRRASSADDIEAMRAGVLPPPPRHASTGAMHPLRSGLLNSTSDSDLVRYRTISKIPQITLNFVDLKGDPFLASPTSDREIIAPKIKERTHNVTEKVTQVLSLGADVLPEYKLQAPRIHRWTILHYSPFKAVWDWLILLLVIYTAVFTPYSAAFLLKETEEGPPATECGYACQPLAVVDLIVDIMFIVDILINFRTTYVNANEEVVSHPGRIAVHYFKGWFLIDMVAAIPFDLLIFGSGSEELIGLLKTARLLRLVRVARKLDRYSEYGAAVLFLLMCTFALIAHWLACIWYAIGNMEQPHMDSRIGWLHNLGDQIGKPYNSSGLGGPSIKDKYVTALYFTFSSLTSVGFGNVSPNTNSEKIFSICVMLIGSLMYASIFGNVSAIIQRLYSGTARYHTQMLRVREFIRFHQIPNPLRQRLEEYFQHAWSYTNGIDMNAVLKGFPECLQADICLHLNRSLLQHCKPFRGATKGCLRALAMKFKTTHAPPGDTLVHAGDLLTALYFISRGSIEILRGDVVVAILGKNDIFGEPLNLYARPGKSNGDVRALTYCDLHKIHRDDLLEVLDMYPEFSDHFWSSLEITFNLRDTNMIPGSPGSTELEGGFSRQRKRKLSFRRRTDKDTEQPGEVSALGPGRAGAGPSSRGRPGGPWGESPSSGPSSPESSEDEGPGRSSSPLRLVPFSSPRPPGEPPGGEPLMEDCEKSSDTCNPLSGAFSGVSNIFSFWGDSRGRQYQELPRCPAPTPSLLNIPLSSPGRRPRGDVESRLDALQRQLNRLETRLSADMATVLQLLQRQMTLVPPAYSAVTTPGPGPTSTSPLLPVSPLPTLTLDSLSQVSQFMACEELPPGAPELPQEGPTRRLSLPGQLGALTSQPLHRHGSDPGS
Chain of Serine/threonine-protein kinase B-raf (P15056 whole entry): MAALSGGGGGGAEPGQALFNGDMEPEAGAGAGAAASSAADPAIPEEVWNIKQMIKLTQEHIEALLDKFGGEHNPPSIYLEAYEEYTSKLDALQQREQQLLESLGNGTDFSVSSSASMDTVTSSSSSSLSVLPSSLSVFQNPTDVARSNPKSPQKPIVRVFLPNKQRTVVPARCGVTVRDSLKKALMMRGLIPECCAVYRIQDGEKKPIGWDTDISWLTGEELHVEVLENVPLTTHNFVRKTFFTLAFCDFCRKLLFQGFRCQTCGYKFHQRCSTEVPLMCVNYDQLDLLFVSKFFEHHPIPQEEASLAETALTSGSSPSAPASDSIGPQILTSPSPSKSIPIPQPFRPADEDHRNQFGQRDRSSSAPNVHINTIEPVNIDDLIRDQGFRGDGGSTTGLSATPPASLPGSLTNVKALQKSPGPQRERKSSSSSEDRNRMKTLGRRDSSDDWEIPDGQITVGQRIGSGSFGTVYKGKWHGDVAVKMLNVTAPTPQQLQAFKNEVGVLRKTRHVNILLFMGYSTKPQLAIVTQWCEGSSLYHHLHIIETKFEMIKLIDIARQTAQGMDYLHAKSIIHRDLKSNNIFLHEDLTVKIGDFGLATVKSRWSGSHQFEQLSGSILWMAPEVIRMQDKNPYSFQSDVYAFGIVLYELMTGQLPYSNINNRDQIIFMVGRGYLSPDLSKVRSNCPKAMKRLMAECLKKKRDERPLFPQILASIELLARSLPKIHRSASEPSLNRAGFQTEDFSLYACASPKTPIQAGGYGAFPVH

SMILES | IC50 (KYSE-520 cell line; Homo sapiens, KYSE-520) [nM] | IC50 [1] [nM] | IC50 [2] [nM] | logP (physchem [3]) | logD (physchem [4]) | solubility (physchem [5]) [µM] | IC50 (KYSE-520 cell line; kyse-520) [nM] | further results
CC1(CN)CCN(c2cnc(-c3cccc(Cl)c3Cl)c(N)n2)CC1 | 5540 |  |  |  |  |  |  | 
CC1(CN)CCN(c2cnc(Sc3ccnc(N)c3Cl)c(N)n2)CC1 | 851 | > 30000 | 123 | 2 | -0.9 | 437 (≈ 166 µg/mL) |  | 
CC1(N)CCN(c2cnc(Sc3cccc(Cl)c3Cl)c(N)n2)CC1 |  | 2800 | 195 | 3.6 | 1.1 | 7 (≈ 2.69 µg/mL) | 4070 | IC50 [6]: 16200 nM
Nc1nc(N2CCC3(CCC[C@H]3N)CC2)cnc1Sc1ccnc(N)c1Cl | 123 | > 30000 | 24 | 2.2 | -0.6 | 561 (≈ 228 µg/mL) |  | 
Cc1ccc(NC(=O)c2ccnc(C(F)(F)F)c2)cc1-c1cc(OCCO)nc(N2CCOCC2)c1 [NAPORAFENIB] |  |  |  |  |  |  |  | IC50 (A-375): 240 nM; IC50 [7]: 78 nM
CC1(CN)CCN(c2cnc(Sc3cccnc3C(F)(F)F)c(N)n2)CC1 | 4050 |  |  |  |  |  |  | 
CC1(N)CCN(c2cnc(Sc3ccccc3Cl)c(N)n2)CC1 |  |  | 251 |  |  |  | 8140 | 
CC1(CN)CCN(c2cnc(Sc3cccc(N)c3Cl)c(N)n2)CC1 |  |  | 89 |  |  |  |  | 
Nc1nc2ccc(Sc3cccc(Cl)c3Cl)nc2[nH]1 |  |  |  |  |  |  |  | ΔTm [8]: 1.5 °C
C[C@H]1OCC2(CCN(c3cnc(Sc4ccnc(N)c4Cl)c(N)n3)CC2)[C@@H]1N |  |  |  |  |  | 382 (≈ 161 µg/mL) | 740 | 
